Measurements as given in patent publication US10517889B2, “Modulators of SMAD7 expression” (Ionis Pharmaceuticals, Inc., priority 2017, dated 2019).
Strand notation (5' to 3'): a small letter for the sugar, then the base; units joined by * are phosphorothioate-linked, units joined directly phosphodiester-linked; [ ] holds rarer units or linkages, { } end groups; capitals alone tell only the bases. e = 2'-O-(2-methoxyethyl) (MOE); [5mC] = 5-methylcytosine; d = 2'-deoxy (DNA)

Test system: human SMAD7 mRNA
Assay: Antisense inhibition of human SMAD7 mRNA expression in Hep3B cells by 5-10-5 MOE gapmers, single concentration, electroporation, RT-PCR (Example 1, Study 1 and 2)
Format: cell-based
Conditions: for % Inhibition: Study 2, electroporation with 15,000 nM antisense oligonucleotide; for % Inhibition of SMAD7 mRNA: electroporation with 15,000 nM antisense oligonucleotide (Study 2)
Method in brief: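 Readout is percent SMAD7 mRNA inhibition versus untreated cells, measured by qRT-PCR (RTS5062) and corrected for total RNA by RIBOGREEN. Oligonucleotide, 5,000 nM or 15,000 nM, was delivered by electroporation into Hep3B cells at 20,000 per well. RNA was collected about 24 h later.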

[1] = electroporation, 15,000 nM, approximately 24 hours, relative to untreated control cells, gapmers targeting SEQ ID NO: 1 and 2
[2] = 5-10-5 MOE gapmers targeting SEQ ID NO: 1 and 2
[3] = electroporation, 15,000 nM antisense oligonucleotide (Study 2), 5-10-5 MOE gapmers targeting SEQ ID NO: 1 and 2
[4] = electroporation, 5,000 nM, approximately 24 hours, relative to untreated control cells, gapmers targeting SEQ ID NO: 1 and 2

Row | Substance | % Inhibition [2] [%] | % inhibition of SMAD7 mRNA expression [3] [%] | also measured
1 | 771853 (antisense eA*eG*e[5mC]*eT*eT*dG*dG*dA*dA*dG*d[5mC]*d[5mC]*dA*dT*d[5mC]*eG*eG*eT*eT*eG) [compound 771853] |  |  | % inhibition of SMAD7 mRNA expression [1]: 36%
2 | 771854 (antisense eT*e[5mC]*e[5mC]*e[5mC]*e[5mC]*dG*d[5mC]*d[5mC]*dT*dT*dT*dT*d[5mC]*dT*dT*e[5mC]*e[5mC]*eT*eG*eG) [compound 771854] | 9 |  | 
3 | 771855 (antisense eT*e[5mC]*e[5mC]*e[5mC]*eG*dA*d[5mC]*dT*dT*dT*dG*d[5mC]*dA*dA*dG*eA*eT*eG*eA*eA) [compound 771855] | 38 |  | 
4 | 771856 (antisense e[5mC]*eT*eG*eA*eA*dA*dG*dA*dA*dA*dG*dT*d[5mC]*d[5mC]*d[5mC]*eG*eA*e[5mC]*eT*eT) [compound 771856] |  | 34 | % Inhibition of SMAD7 mRNA [2]: 35%
5 | 771857 (antisense e[5mC]*eG*eT*e[5mC]*eT*dT*dA*dT*dT*dG*dT*dT*dT*dT*dT*eG*eT*eT*e[5mC]*e[5mC]) [compound 771857] |  | 29 | 
6 | 771858 (antisense e[5mC]*eT*eG*e[5mC]*e[5mC]*dA*dA*d[5mC]*dG*dG*d[5mC]*dA*d[5mC]*dA*dG*eT*e[5mC]*eA*eT*eA) [compound 771858] |  | 31 | 
7 | 771859 (antisense e[5mC]*e[5mC]*eA*eG*eA*dA*dA*dA*dT*dG*d[5mC]*dA*dG*dA*d[5mC]*eA*eG*e[5mC]*eT*eA) [compound 771859] | 42 |  | % inhibition of SMAD7 mRNA expression [4]: 43%
8 | 771860 (antisense e[5mC]*eT*eG*eG*e[5mC]*dT*d[5mC]*dA*dG*dA*dG*dG*d[5mC]*dT*dG*e[5mC]*eA*eG*eT*eG) [compound 771860] | 20 |  | 
9 | 771861 (antisense eA*eG*eA*eA*eA*dA*d[5mC]*dA*dG*d[5mC]*d[5mC]*d[5mC]*d[5mC]*d[5mC]*d[5mC]*e[5mC]*eA*eG*e[5mC]*eA) [compound 771861] |  |  | % inhibition of SMAD7 mRNA expression [1]: 13%
10 | 771862 (antisense eT*e[5mC]*eT*eT*e[5mC]*d[5mC]*d[5mC]*d[5mC]*dA*dG*dA*dA*dA*dA*d[5mC]*eA*eG*e[5mC]*e[5mC]*e[5mC]) [compound 771862] | 10 |  | 
11 | 771863 (antisense e[5mC]*e[5mC]*eA*eG*e[5mC]*d[5mC]*d[5mC]*d[5mC]*d[5mC]*dT*d[5mC]*d[5mC]*dT*dG*dG*eG*eA*e[5mC]*eT*eA) [compound 771863] | 9 |  | 
12 | 771864 (antisense eA*eG*eA*e[5mC]*eA*dA*dA*dG*dA*dT*d[5mC]*dA*d[5mC]*dA*dG*eA*eT*e[5mC]*eA*e[5mC]) [compound 771864] |  | 0 | % Inhibition of SMAD7 mRNA [2]: 27%
13 | 771865 (antisense eA*eT*eA*eG*eG*dG*dA*dT*dA*dT*d[5mC]*dT*d[5mC]*dA*dT*e[5mC]*eA*eA*eT*eA) [compound 771865] |  | 38 | 
14 | 771866 (antisense eG*e[5mC]*eA*eT*eT*dT*dT*dT*d[5mC]*dT*dG*dA*dA*d[5mC]*dA*eG*eA*eG*eT*e[5mC]) [compound 771866] |  | 34 | 
15 | 771867 (antisense eA*e[5mC]*eT*eG*eG*dG*d[5mC]*dT*dT*d[5mC]*dA*dG*d[5mC]*dA*dA*eA*eG*eA*eT*eA) [compound 771867] | 19 |  | % inhibition of SMAD7 mRNA expression [4]: 39%
16 | 771868 (antisense eG*eG*eA*eG*eG*d[5mC]*dA*dA*dA*dT*dT*d[5mC]*dA*dT*dA*eG*eA*e[5mC]*eA*eG) [compound 771868] | 16 |  | 
17 | 771870 (antisense eA*eG*eG*e[5mC]*eA*d[5mC]*dA*dA*dG*dT*d[5mC]*dA*dA*dG*dG*eA*eG*eG*e[5mC]*e[5mC]) [compound 771870] | 15 |  | 
18 | 771871 (antisense e[5mC]*eT*e[5mC]*e[5mC]*e[5mC]*dT*d[5mC]*dT*dG*d[5mC]*d[5mC]*d[5mC]*d[5mC]*dA*dG*eG*eA*eT*eT*e[5mC]) [compound 771871] | 15 |  | 
19 | 771872 (antisense eT*e[5mC]*e[5mC]*e[5mC]*e[5mC]*d[5mC]*dA*d[5mC]*d[5mC]*dG*d[5mC]*dG*d[5mC]*dA*dG*eG*eG*eA*e[5mC]*eA) [compound 771872] |  | 0 | % Inhibition of SMAD7 mRNA [2]: 11%
20 | 771873 (antisense eA*eG*e[5mC]*eT*eG*d[5mC]*dT*dG*dT*d[5mC]*dA*d[5mC]*dA*dA*dG*eG*e[5mC]*e[5mC]*e[5mC]*eT) [compound 771873] |  | 31 | 
21 | 771874 (antisense eA*eT*eT*eA*e[5mC]*dT*dT*d[5mC]*dT*dG*dT*d[5mC]*dT*dG*d[5mC]*e[5mC]*eT*e[5mC]*e[5mC]*eG) [compound 771874] |  | 34 | 
22 | 771875 (antisense e[5mC]*e[5mC]*e[5mC]*e[5mC]*eG*dT*dG*d[5mC]*dA*d[5mC]*dT*d[5mC]*d[5mC]*d[5mC]*dA*eG*e[5mC]*e[5mC]*e[5mC]*eT) [compound 771875] | 51 |  | % inhibition of SMAD7 mRNA expression [4]: 42%
23 | 771876 (antisense e[5mC]*eG*eA*eG*e[5mC]*dT*d[5mC]*d[5mC]*d[5mC]*dT*d[5mC]*d[5mC]*d[5mC]*dT*dG*eG*e[5mC]*e[5mC]*e[5mC]*e[5mC]) [compound 771876] | 0 |  | 
24 | 771877 (antisense eT*eG*e[5mC]*eA*eG*dG*dA*dT*d[5mC]*d[5mC]*dG*dA*dT*dG*dG*eA*eA*eA*eA*eG) [compound 771877] |  |  | % inhibition of SMAD7 mRNA expression [1]: 24%
25 | 771878 (antisense e[5mC]*eA*eG*eT*eT*dT*d[5mC]*dT*dA*dG*dA*dG*dG*dG*dT*eA*eG*eG*eA*eA) [compound 771878] | 22 |  | 
26 | 771879 (antisense eA*eG*eG*eA*e[5mC]*d[5mC]*d[5mC]*dA*dA*dA*dG*dG*d[5mC]*dA*dG*eA*e[5mC]*e[5mC]*e[5mC]*eT) [compound 771879] | 23 |  | 
27 | 771880 (antisense eT*e[5mC]*e[5mC]*e[5mC]*eT*dG*dG*dT*dT*dT*dT*dG*d[5mC]*dA*dG*eG*eT*eG*eG*eT) [compound 771880] |  | 29 | % Inhibition of SMAD7 mRNA [2]: 41%
28 | 771881 (antisense eA*eT*eT*eT*eT*d[5mC]*d[5mC]*dA*dA*dA*dA*dG*dG*dA*d[5mC]*eA*eA*eA*eA*e[5mC]) [compound 771881] |  | 0 | 
29 | 771882 (antisense eG*e[5mC]*eA*eT*e[5mC]*dA*dT*dG*dA*dA*dA*dA*dT*d[5mC]*dT*eT*eA*eA*eT*eA) [compound 771882] |  | 35 | 
30 | 771883 (antisense eA*eG*e[5mC]*eT*eG*dG*d[5mC]*dA*d[5mC]*dT*dG*dA*dA*dT*dG*e[5mC]*eT*eG*eA*eT) [compound 771883] | 26 |  | % inhibition of SMAD7 mRNA expression [4]: 0%
